In ChEMBL document CHEMBL5463725, “Data for DCP probe BAY-277” (2023) one finds inhibition data, which are given here for two compounds.

Broadly, the inhibition is the change of the read-out against control, counted positive when it falls.

Conditions in all cases: Compound concentration 10.0 uM
In assay [1] the target is Hepatocyte growth factor receptor (Homo sapiens) (UniProt P08581). Kind of assay: Inhibition of Met(h) at 10.0 µM in the Eurofins Kinase panel.
The target of assay [2] is Serine/threonine-protein kinase pim-2 (Homo sapiens) (UniProt Q9P1W9). The assay is described as follows: Inhibition of Pim-2(h) at 10.0 µM in the Eurofins Kinase panel.
The target in assay [3] is Sodium/potassium-transporting ATPase (Sus scrofa) (UniProt P05027+P05024+D2WKD8+D2WKD7+F1ST41). Kind of assay: Inhibition of ATPase, Na+/K+, Heart, Pig at 10.0 µM in the Eurofins Panlabs Safety Screen. Format: protein-complex assay.
For assay [4], the target named is T1, Alpha-2A adrenergic receptor (Homo sapiens) (UniProt P08913).
T1 sequence (whole entry): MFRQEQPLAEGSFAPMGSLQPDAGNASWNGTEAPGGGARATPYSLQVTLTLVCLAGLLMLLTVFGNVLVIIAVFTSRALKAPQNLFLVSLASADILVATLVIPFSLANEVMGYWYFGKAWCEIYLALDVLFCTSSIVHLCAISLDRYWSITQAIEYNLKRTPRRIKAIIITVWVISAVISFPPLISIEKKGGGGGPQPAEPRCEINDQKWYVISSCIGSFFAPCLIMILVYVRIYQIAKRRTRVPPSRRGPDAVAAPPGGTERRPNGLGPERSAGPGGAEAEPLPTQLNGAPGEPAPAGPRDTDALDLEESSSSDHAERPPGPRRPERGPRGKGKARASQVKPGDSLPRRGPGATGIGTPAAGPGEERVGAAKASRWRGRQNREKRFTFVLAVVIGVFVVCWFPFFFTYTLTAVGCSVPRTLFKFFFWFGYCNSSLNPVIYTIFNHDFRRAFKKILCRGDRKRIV
Kind of assay: Inhibition of Adrenergic alpha2A at 10.0 µM in the Eurofins Panlabs Safety Screen.

Assay [5] addresses B1 bradykinin receptor (Homo sapiens) (UniProt P46663). The assay is described as follows: Inhibition of Bradykinin B1 at 10.0 µM in the Eurofins Panlabs Safety Screen.
For assay [6], the target named is B2 bradykinin receptor (Homo sapiens) (UniProt P30411). The assay is described as follows: Inhibition of Bradykinin B2 at 10.0 µM in the Eurofins Panlabs Safety Screen.
Assay [7] deals with Endothelin-1 receptor (Homo sapiens) (UniProt P25101). Kind of assay: Inhibition of Endothelin ETA at 10.0 µM in the Eurofins Panlabs Safety Screen.
Assay [8] addresses Estrogen receptor (Homo sapiens) (UniProt P03372). The assay is described as follows: Inhibition of Estrogen Eralpha at 10.0 µM in the Eurofins Panlabs Safety Screen.
Assay [9] has as its target Histamine H1 receptor (Homo sapiens) (UniProt P35367). Kind of assay: Inhibition of Histamine H1 at 10.0 µM in the Eurofins Panlabs Safety Screen.
Assay [10] addresses T2, Muscarinic acetylcholine receptor M1 (Homo sapiens) (UniProt P11229).
T2 sequence (whole entry): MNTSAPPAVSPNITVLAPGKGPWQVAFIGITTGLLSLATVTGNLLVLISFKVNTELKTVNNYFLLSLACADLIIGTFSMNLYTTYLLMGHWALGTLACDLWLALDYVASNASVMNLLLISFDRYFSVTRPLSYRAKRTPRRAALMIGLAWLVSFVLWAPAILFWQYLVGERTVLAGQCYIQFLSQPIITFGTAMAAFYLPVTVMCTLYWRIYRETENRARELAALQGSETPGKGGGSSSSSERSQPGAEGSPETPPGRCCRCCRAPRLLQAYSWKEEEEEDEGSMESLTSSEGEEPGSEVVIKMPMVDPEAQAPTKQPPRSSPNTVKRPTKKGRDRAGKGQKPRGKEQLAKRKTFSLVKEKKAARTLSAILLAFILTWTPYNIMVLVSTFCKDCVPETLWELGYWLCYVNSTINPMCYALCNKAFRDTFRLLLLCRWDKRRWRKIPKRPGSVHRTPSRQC
The assay is described as follows: Inhibition of Muscarinic M1 at 10.0 µM in the Eurofins Panlabs Safety Screen.

The target in assay [11] is Muscarinic acetylcholine receptor M3 (Homo sapiens, UniProt P20309). Kind of assay: Inhibition of Muscarinic M3 at 10.0 µM in the Eurofins Panlabs Safety Screen.
Assay [12] addresses Progesterone receptor (Homo sapiens) (UniProt P06401). Kind of assay: Inhibition of Progesterone PR-B at 10.0 µM in the Eurofins Panlabs Safety Screen.
Assay [13] has as its target 5-hydroxytryptamine receptor 2B (Homo sapiens) (UniProt P41595). Kind of assay: Inhibition of Serotonin (5-Hydroxytryptamine) 5-HT2B at 10.0 µM in the Eurofins Panlabs Safety Screen.
In assay [14] the target is Sodium-dependent dopamine transporter (Homo sapiens, UniProt Q01959). Kind of assay: Inhibition of Transporter, Dopamine (DAT) at 10.0 µM in the Eurofins Panlabs Safety Screen.
For assay [15], the target named is RAC-beta serine/threonine-protein kinase (Homo sapiens) (UniProt P31751). The assay is described as follows: Inhibition of PKBbeta(h) at 10.0 µM in the Eurofins Kinase panel.
Assay [16] addresses Serine/threonine-protein kinase Nek1 (Homo sapiens) (UniProt Q96PY6). The assay is described as follows: Inhibition of NEK1(h) at 10.0 µM in the Eurofins Kinase panel.
Assay [17] has as its target Serine/threonine-protein kinase 38 (Homo sapiens) (UniProt Q15208). The assay is described as follows: Inhibition of NDR1(h) at 10.0 µM in the Eurofins Kinase panel.
Assay [18] addresses Dual specificity protein kinase CLK4 (Homo sapiens) (UniProt Q9HAZ1). The assay is described as follows: Inhibition of CLK4(h) at 10.0 µM in the Eurofins Kinase panel.
Assay [19] addresses Mitogen-activated protein kinase kinase kinase 21 (Homo sapiens) (UniProt Q5TCX8). Kind of assay: Inhibition of MLK4(h) at 10.0 µM in the Eurofins Kinase panel.
Assay [20] deals with Serine/threonine-protein kinase DCLK3 (Homo sapiens) (UniProt Q9C098). The assay is described as follows: Inhibition of DCAMKL3(h) at 10.0 µM in the Eurofins Kinase panel.
The target in assay [21] is Tyrosine-protein kinase Fgr (Homo sapiens) (UniProt P09769). The assay is described as follows: Inhibition of Fgr(h) at 10.0 µM in the Eurofins Kinase panel.
Another assay deals with D(3) dopamine receptor (Homo sapiens, UniProt P35462).
Assay [22] deals with Histamine H1 receptor (Homo sapiens) (UniProt P35367).
Assay [23] concerns the target Alpha-1A adrenergic receptor (Homo sapiens) (UniProt P35348).
Assay [24] has as its target Alpha-1B adrenergic receptor (Homo sapiens) (UniProt P35368).
Assay [25] deals with Alpha-1D adrenergic receptor (Homo sapiens) (UniProt P25100).
Assay [26] has as its target Tyrosine-protein kinase Yes (Homo sapiens) (UniProt P07947). Kind of assay: Inhibition of Yes(h) at 10.0 µM in the Eurofins Kinase panel.
Assay [27] addresses Wee1-like protein kinase 2 (Homo sapiens) (UniProt P0C1S8). Kind of assay: Inhibition of Wee1B(h) at 10.0 µM in the Eurofins Kinase panel.
Assay [28] addresses Beta-1 adrenergic receptor (Homo sapiens) (UniProt P08588).

Chain of D(3) dopamine receptor (P35462 whole entry): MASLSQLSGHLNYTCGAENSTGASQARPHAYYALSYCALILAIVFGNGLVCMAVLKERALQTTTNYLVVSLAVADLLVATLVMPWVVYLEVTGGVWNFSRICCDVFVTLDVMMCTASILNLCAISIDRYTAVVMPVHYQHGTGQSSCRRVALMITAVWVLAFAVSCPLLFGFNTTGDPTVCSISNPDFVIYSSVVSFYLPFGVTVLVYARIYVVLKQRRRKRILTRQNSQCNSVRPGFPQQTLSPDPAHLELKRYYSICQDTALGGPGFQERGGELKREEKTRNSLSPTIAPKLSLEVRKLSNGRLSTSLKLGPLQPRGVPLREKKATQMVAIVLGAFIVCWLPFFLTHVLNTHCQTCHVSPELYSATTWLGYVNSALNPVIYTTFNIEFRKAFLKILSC
Chain of Alpha-1B adrenergic receptor (Homo sapiens) (P35368 whole entry): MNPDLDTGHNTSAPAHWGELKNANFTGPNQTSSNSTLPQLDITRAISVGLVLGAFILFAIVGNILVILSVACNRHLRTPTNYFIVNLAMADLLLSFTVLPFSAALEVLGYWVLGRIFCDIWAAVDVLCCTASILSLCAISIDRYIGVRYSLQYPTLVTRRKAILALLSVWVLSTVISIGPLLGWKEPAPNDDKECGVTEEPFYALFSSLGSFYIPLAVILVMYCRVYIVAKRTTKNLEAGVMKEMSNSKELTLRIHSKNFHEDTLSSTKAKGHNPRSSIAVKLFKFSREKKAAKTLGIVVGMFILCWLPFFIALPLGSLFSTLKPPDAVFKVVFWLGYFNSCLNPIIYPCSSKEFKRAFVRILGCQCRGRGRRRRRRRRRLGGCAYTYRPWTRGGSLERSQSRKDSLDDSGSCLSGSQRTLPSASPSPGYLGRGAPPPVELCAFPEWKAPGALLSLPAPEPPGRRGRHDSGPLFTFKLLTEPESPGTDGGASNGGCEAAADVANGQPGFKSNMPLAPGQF
Chain of Histamine H1 receptor (Homo sapiens) (P35367 whole entry): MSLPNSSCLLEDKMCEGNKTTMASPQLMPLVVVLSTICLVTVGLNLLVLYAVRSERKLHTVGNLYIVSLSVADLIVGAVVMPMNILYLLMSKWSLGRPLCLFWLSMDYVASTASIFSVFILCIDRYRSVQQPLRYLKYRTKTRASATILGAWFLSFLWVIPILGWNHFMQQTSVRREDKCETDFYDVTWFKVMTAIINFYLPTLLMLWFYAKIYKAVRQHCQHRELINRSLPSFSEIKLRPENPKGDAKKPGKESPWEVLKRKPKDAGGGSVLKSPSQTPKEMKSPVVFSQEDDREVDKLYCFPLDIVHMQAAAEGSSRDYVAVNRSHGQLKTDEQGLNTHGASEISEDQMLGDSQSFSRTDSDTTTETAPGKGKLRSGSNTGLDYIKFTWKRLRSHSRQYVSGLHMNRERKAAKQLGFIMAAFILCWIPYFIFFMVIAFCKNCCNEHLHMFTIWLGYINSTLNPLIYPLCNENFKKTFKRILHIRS
Chain of Alpha-1A adrenergic receptor (Homo sapiens) (P35348 whole entry): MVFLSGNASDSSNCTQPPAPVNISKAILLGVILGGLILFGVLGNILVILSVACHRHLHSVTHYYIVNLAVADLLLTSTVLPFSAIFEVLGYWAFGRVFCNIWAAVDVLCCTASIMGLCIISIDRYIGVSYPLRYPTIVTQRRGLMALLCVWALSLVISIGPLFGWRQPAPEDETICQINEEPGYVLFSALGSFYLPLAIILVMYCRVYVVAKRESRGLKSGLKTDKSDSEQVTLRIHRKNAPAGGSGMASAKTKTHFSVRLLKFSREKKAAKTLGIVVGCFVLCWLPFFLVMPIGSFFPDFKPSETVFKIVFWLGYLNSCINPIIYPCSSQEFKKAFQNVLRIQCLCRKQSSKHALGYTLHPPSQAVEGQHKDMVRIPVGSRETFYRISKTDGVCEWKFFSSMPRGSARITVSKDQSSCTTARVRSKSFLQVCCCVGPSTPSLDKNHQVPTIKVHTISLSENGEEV
Chain of Alpha-1D adrenergic receptor (Homo sapiens) (P25100 whole entry): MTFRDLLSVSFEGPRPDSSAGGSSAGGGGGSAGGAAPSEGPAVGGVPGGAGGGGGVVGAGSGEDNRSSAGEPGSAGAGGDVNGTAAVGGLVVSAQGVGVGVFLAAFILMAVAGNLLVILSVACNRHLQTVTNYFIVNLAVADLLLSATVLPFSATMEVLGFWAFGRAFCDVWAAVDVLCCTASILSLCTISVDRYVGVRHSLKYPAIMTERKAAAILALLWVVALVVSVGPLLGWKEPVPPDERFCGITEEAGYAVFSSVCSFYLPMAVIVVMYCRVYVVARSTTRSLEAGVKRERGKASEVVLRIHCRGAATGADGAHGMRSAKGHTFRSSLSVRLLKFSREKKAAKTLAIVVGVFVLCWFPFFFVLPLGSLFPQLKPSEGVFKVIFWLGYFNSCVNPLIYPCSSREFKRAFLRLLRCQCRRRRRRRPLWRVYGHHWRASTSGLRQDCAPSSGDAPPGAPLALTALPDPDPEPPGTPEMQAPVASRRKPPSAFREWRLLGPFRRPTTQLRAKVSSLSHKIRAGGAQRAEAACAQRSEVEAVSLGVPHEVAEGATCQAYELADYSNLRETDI
Chain of Beta-1 adrenergic receptor (Homo sapiens) (P08588 whole entry, looked up): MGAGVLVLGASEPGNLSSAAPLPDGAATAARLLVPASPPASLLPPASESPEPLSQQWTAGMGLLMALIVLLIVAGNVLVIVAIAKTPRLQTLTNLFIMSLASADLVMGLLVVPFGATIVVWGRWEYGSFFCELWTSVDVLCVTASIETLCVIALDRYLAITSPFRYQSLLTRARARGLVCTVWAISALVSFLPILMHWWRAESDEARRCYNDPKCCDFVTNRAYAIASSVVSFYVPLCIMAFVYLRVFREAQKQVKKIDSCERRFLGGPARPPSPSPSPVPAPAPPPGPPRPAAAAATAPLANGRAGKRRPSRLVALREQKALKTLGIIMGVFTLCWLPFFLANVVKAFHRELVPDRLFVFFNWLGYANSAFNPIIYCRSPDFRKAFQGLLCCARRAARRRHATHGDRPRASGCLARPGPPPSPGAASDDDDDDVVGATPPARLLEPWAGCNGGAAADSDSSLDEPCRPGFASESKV
Chain of B1 bradykinin receptor (Homo sapiens) (P46663 whole entry): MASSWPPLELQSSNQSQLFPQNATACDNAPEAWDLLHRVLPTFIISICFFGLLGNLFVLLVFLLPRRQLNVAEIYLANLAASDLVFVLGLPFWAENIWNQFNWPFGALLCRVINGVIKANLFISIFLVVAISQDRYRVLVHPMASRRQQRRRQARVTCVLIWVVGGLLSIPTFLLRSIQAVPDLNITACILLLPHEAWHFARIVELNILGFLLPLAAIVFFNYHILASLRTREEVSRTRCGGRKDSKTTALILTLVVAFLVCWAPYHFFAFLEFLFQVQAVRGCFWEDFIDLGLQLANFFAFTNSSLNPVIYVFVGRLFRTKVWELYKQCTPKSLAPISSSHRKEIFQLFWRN
Chain of Muscarinic acetylcholine receptor M3 (P20309 whole entry, looked up): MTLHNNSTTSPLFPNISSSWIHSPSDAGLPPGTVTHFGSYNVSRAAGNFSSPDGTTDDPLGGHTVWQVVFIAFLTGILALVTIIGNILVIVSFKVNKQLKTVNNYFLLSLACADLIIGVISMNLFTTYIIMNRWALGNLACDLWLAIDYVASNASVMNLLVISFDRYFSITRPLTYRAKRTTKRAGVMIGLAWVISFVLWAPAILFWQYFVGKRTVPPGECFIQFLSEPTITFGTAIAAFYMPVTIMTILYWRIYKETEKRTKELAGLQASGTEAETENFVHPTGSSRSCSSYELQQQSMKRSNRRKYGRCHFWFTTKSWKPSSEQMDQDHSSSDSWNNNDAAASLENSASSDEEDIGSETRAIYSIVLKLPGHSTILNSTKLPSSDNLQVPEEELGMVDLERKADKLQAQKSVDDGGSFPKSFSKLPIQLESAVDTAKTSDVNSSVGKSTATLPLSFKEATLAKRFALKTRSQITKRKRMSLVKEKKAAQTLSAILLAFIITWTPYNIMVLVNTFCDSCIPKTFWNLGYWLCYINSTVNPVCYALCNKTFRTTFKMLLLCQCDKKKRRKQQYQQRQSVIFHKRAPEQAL
Chain of Sodium-dependent dopamine transporter (Q01959 whole entry): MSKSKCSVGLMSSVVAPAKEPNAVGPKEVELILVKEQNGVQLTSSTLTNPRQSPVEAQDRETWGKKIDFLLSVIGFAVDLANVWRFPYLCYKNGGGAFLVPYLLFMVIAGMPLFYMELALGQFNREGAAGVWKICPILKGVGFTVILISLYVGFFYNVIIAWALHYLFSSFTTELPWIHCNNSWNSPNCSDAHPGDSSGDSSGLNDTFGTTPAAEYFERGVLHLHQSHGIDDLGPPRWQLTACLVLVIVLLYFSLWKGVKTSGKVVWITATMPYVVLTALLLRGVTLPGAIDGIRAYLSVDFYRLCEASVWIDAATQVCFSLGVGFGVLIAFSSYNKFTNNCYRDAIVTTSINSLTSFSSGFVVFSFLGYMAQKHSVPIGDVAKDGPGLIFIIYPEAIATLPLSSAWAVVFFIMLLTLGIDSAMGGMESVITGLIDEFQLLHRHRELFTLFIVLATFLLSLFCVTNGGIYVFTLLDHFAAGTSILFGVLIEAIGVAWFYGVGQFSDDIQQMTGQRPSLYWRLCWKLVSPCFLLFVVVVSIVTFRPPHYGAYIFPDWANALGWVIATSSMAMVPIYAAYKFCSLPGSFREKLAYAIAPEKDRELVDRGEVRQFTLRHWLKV
Chain of 5-hydroxytryptamine receptor 2B (Homo sapiens) (P41595 whole entry): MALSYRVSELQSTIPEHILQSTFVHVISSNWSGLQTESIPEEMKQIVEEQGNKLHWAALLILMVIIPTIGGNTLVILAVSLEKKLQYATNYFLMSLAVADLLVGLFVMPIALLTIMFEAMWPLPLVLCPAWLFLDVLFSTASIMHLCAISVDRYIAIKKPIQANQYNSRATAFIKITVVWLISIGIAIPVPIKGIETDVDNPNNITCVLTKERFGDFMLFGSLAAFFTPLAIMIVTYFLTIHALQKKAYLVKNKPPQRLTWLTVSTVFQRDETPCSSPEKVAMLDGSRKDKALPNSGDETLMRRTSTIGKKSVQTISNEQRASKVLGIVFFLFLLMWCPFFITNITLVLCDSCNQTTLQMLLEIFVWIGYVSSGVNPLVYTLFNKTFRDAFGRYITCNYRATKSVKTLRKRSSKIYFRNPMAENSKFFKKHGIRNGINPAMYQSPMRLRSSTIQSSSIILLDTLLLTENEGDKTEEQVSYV

As to `O=C1NCCCC1N1Cc2cc(C3CCN(C(=O)CCCCCN4CCC(c5ccc(Oc6nn7cnnc7c7c6CCCC7)cc5)CC4)CC3)ccc2C1=O` (stereo not drawn), the inhibition in assay [1] was 16.9%; in [2] it was 10.6%; in [3], 1%; in [4], 32%; in assay [5], 7%; in assay [6] it was 13%. The inhibition turned out to be 3% in assay [7]; 22% in assay [8]; 22% in assay [9]; 53% in assay [10]; 29% in assay [11]; 19% in assay [12]. The inhibition is 10% in assay [13]; 39% in assay [14]; 14.1% in [15]; 11.4% in [16]; 11.2% in assay [17]; 10.8% in assay [18]. Further, the inhibition was 10.7% in assay [19]; 10.5% in assay [20]; 10.1% in assay [21]; 68.3% at D(3) dopamine receptor; 14.2% in assay [22]; -1.93% in assay [23]. For the same compound, the inhibition in assay [24] is 2.86%; in [25], 8.76%.
Regarding `O=C1CCC(N2Cc3cc(C4CCN(C(=O)CCCCCN5CCC(c6ccc(Oc7nn8cnnc8c8c7CCCC8)cc6)CC5)CC4)ccc3C2=O)C(=O)N1` (stereo not drawn), the inhibition in assay [1] was 22.7%; in assay [2] it was 15.4%; in [26], 10.9%; in [27] it was 10.3%; in assay [3], -7%; in assay [4], 28%. For the same compound, the inhibition was 1% in assay [5]; 10% in [6]; -1% in [7]; 17% in assay [8]; 23% in assay [9]; 53% in assay [10]. In addition, the inhibition is 26% in [11]; 24% in assay [12]; 41% in [13]; 38% in assay [14]; 25.6% on D(3) dopamine receptor; 10.3% in assay [22]. Further, the inhibition in assay [23] was 12.2%; in [24] it was 6.88%; in assay [28], 0.81%; in assay [25], 19.8%.
